Experimental data reported in PubChem BioAssay (NCI).
Where “and” joins values, the source holds several entries; their conditions need not be identical. Equal entries are not always repeated.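 In this assay, cells in 96-well plates receive the compound at five concentrations for 48 hours. Endpoints are linearly interpolated between the surrounding concentrations. GI50 is the concentration that inhibits growth by half. TGI is the concentration that stops growth completely.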

Columns and labels:
Experiment in all cases: NCI tumour cell line growth inhibition, 48 h
MALME-3M melanoma = system: MALME-3M melanoma
HCC-2998 colon = system: HCC-2998 colon
ACHN renal = system: ACHN renal
HOP-92 NSCLC = system: HOP-92 NSCLC
MCF7 breast = system: MCF7 breast
786-0 renal = system: 786-0 renal
U251 CNS = system: U251 CNS
MOLT-4 leukemia = system: MOLT-4 leukemia
HCT-15 colon = system: HCT-15 colon
BT-549 breast = system: BT-549 breast

Structure (SMILES)	GI50 (MALME-3M melanoma)	TGI (MALME-3M melanoma)	GI50 (HCC-2998 colon)	TGI (HCC-2998 colon)	GI50 (ACHN renal)	TGI (ACHN renal)	GI50 (HOP-92 NSCLC)	TGI (HOP-92 NSCLC)	GI50 (MCF7 breast)	TGI (MCF7 breast)	GI50 (786-0 renal)	TGI (786-0 renal)	GI50 (U251 CNS)	TGI (U251 CNS)	GI50 (MOLT-4 leukemia)	TGI (MOLT-4 leukemia)	GI50 (HCT-15 colon)	TGI (HCT-15 colon)	GI50 (BT-549 breast)	TGI (BT-549 breast)
O=C1NC(=NCCc2ccc(Br)cc2)S/C1=C\c1ccc2ncccc2c1	> 21.7 µM	> 25 µM	> 25 µM	> 25 µM	> 25 µM	> 25 µM	> 25 µM	> 25 µM	22.1 µM	> 25 µM	> 25 µM	> 25 µM	> 18.9 µM	> 25 µM	19.7 µM	> 25 µM	> 22.3 µM	> 25 µM	> 21.6 µM	> 25 µM
N#Cc1c(N)nc(N2CCOCC2)c(C#N)c1-c1c(Cl)cccc1Cl	3.72 µM	13.5 µM	0.0181 µM	2.48 µM	13.4 µM	44.5 µM	4.68 µM	46 µM	2.92 µM	16.4 µM	12.9 µM	36.7 µM	3.89 µM	18.5 µM	5.1 µM	86.5 µM	4.04 µM	25.8 µM	7 µM	79.7 µM
CC1(C)C(=O)/C=C\C(=O)C(C)(C)C(=O)/C=C\C(=O)C(C)(C)C2=CC=C(O2)C(C)(C)C(=O)/C=C\C1=O	–	4.11 µM	–	24.1 µM	–	12.6 µM	–	3.9 µM	–	39.8 µM	–	12.7 µM	–	30.4 µM	–	4.81 µM	–	7.69 µM	–	24.2 µM
C(=N\Nc1ccc2ccccc2n1)/c1ccccn1	1.35 µM	8.34 µM	0.307 µM	1.14 µM	0.367 µM	> 43.9 µM	0.816 µM	32.8 µM	0.44 µM	> 100 µM	0.317 µM	–	0.413 µM	> 55 µM	0.353 µM	> 21.8 µM	0.377 µM	> 100 µM	1.1 µM	> 38.9 µM
CCc1c(C)c2cc(-n3c(-c4ccc(OC)cc4)csc3=N)c(O)c(C)c2oc1=O	1.73 µM	6.26 µM	3.09 µM	10.2 µM	1.53 µM	3.6 µM	1.88 µM	7.76 µM	0.82 µM	3.07 µM	1.7 µM	4.72 µM	1.77 µM	6.09 µM	1.54 µM	> 100 µM	1.21 µM	3.95 µM	1 µM	5.02 µM
CN1CCN(c2ccc(NC3=CC(=O)c4ncncc4C3=O)cc2)CC1	0.268 µM	0.713 µM	1.27 µM	2.82 µM	0.228 µM	0.52 µM	0.312 µM	0.993 µM	0.186 µM	0.405 µM	0.248 µM	0.645 µM	0.722 µM	1.94 µM	0.289 µM	–	0.343 µM	1.44 µM	1.6 µM	3.04 µM
CC12O[C@H](C[C@@H](OC(=O)CCC(=O)O)[C@H]1O)n1c3ccccc3c3c4c(c5c6ccccc6n2c5c31)C(=O)NC4=O	0.2 µM	2.36 µM	5.64 µM	15.1 µM	0.727 µM	> 50 µM	0.738 µM	4.77 µM	1.25 µM	10.9 µM	2.14 µM	11.3 µM	5.71 µM	17.1 µM	0.949 µM	18 µM	0.767 µM	16.4 µM	1.02 µM	7.68 µM
C[C@]12CCC(=O)C[C@@H]1CC[C@@H]1[C@@H]2CC[C@]2(C)[C@@H](OC(=O)N(CCCl)N=O)CC[C@@H]12	4.3 µM	24.1 µM	0.933 µM	7.95 µM	0.321 µM	11.7 µM	0.179 µM	11.1 µM	4.71 µM	> 45.6 µM	0.118 µM	3.66 µM	0.394 µM	14 µM	0.145 µM	> 41.6 µM	2.26 µM	14 µM	4.87 µM	21.7 µM
COc1ccc2c(c1)C(=O)c1c-2n(CCCN(C)C)c(=O)c2cc([N+](=O)[O-])ccc12	0.0207 µM	0.892 µM	0.0131 µM	0.255 µM	< 0.01 µM	0.103 µM	0.0329 µM	1.44 µM	< 0.01 µM	0.338 µM	< 0.01 µM	< 0.01 µM	< 0.01 µM	1.07 µM	< 0.01 µM	0.282 µM	0.0239 µM	1.29 µM	0.0159 µM	0.621 µM
COc1ccc2c(c1)nnc1c3cccnc3[nH]c21	1.06 µM and 0.926 µM	4.63 µM and 4.18 µM	8.23 µM and 10 µM	18.4 µM and 23.8 µM	0.231 µM	> 100 µM	0.0817 µM and 0.131 µM	1.11 µM and 3.26 µM	0.228 µM and 0.209 µM	0.966 µM and 1.41 µM	0.509 µM and 2.23 µM	–	0.929 µM and 0.987 µM	17.3 µM and 10.7 µM	0.0299 µM	0.219 µM	2.26 µM and 2.3 µM	50 µM and 12.9 µM	3.43 µM and 3.26 µM	15 µM and 20.5 µM
COc1ccc(-c2[nH]ncc2Nc2cc(OC)c(OC)c(OC)c2)cc1	2.04 µM	> 26.1 µM	2.17 µM	37.9 µM	10.3 µM	> 100 µM	> 62.9 µM	> 100 µM	0.736 µM	> 100 µM	6.2 µM	> 65.4 µM	2.21 µM	> 100 µM	2.12 µM	63.7 µM	0.702 µM	> 100 µM	9.99 µM	> 89.6 µM
N#CC1=C(N)OC2=C(CCOc3c2ccc2ccccc32)C1c1ccc(Br)cc1 (stereo not drawn)	15.3 µM	57.7 µM	22.1 µM	56.9 µM	41.3 µM	> 100 µM	14.1 µM	47.4 µM	20.9 µM	94.2 µM	44.9 µM	> 100 µM	–	–	11.3 µM	49 µM	31 µM	> 100 µM	> 100 µM	> 100 µM
COc1cnccc1Nc1nc(-c2nn(Cc3c(F)cc(OCCO)cc3F)c3ccccc23)ncc1OC	2.16 µM	5.88 µM	10 µM	> 100 µM	11.9 µM	30.5 µM	0.634 µM	> 100 µM	1.65 µM	6.16 µM	1.76 µM	5.44 µM	1.59 µM	3.76 µM	1.55 µM	> 100 µM	2.63 µM	> 100 µM	6.51 µM	28.5 µM
COc1ccc2nc3ccccc3c(NCCNCC(C)O)c2c1 (stereo not drawn)	0.426 µM	1.72 µM	0.519 µM	2.37 µM	0.375 µM	14.4 µM	0.393 µM	3.48 µM	0.315 µM	4.14 µM	0.306 µM	1.83 µM	0.549 µM	4.94 µM	0.368 µM	–	0.461 µM	10.6 µM	1.61 µM	5.73 µM
Cc1ccc(-c2nc3sc(C)cn3c2/C=C2\C(=O)Nc3ccc(Cl)cc32)cc1	14.9 µM	35.6 µM	15.1 µM	31.1 µM	4.27 µM	16 µM	7.66 µM	25.1 µM	7.66 µM	22.3 µM	10.3 µM	22 µM	3.92 µM	15.3 µM	26.2 µM	82.7 µM	17.2 µM	34.4 µM	15.3 µM	37.1 µM
CC1=C[C@@H]2c3c(c(O)c(O)c4oc5cc(O)cc(O)c5c(=O)c34)[C@@H](c3cc(O)c(O)c4oc5cc(O)cc(O)c5c(=O)c34)[C@@H]2C(C)(C)C1	8.53 µM	25.2 µM	3.87 µM	15.2 µM	4.25 µM	15.7 µM	1.85 µM	6.6 µM	1.89 µM	11 µM	2.69 µM	11.5 µM	2.34 µM	13.9 µM	3.38 µM	19.5 µM	3.16 µM	12.8 µM	3.68 µM	19.8 µM
CCS(=O)(=O)c1ccc(OC)c(Nc2ncc(-c3cccc(F)c3)o2)c1	> 25 µM	> 25 µM	> 25 µM	> 25 µM	> 25 µM	> 25 µM	> 25 µM	> 25 µM	> 25 µM	> 25 µM	> 25 µM	> 25 µM	> 25 µM	> 25 µM	> 25 µM	> 25 µM	> 25 µM	> 25 µM	> 25 µM	> 25 µM
COc1ccc2c(c1)/C(=N/OC(C)=O)c1c-2c(OC)nc2ccccc12	57.3 µM	> 100 µM	> 100 µM	> 100 µM	86.4 µM	> 100 µM	22.5 µM	82.3 µM	88.3 µM	> 100 µM	> 100 µM	> 100 µM	> 100 µM	> 100 µM	> 100 µM	> 100 µM	> 100 µM	> 100 µM	> 100 µM	> 100 µM
O=C(NCCNCCO)c1ccc(Nc2nc3ccccc3c3occc23)cc1	–	–	2.14 µM	5.27 µM	14.2 µM	27.3 µM	3.01 µM	18.4 µM	28 µM	> 100 µM	13.7 µM	27.5 µM	11.2 µM	23.8 µM	4.77 µM	15.1 µM	16.7 µM	31.2 µM	11.5 µM	34.2 µM
CCOCCOCCOCCOCCOCCOCCOCCOCCOCCO (tested in a mixture with another compound)	3.65 µM	9.23 µM	1.65 µM	6.25 µM	–	–	0.643 µM	2.9 µM	1.04 µM	4.58 µM	2.83 µM	14.4 µM	0.987 µM	4.47 µM	0.628 µM	1.69 µM	–	–	1.29 µM	4.75 µM
CC(C)(C)[Si](C)(C)OC1[C@@H](COC(=O)NC(=O)CCl)O[C@@H](n2cnc3c(N)ncnc32)[C@H]1O[Si](C)(C)C(C)(C)C (stereo partly drawn)	0.984 µM	2.01 µM	5.44 µM	12.6 µM	1.38 µM	3.45 µM	1.76 µM	9.24 µM	2.26 µM	9 µM	1.05 µM	2.33 µM	2.84 µM	7.91 µM	1.01 µM	2.22 µM	1 µM	2.21 µM	0.922 µM	1.85 µM
CSc1ccc(C(=O)/C=C/c2ccc(Cl)cc2Cl)cc1	29.1 µM	> 100 µM	17.2 µM	35.8 µM	23.7 µM	55.6 µM	40.2 µM	> 100 µM	3.68 µM	19.8 µM	16.9 µM	36.2 µM	16.9 µM	32 µM	16.4 µM	33.9 µM	29.8 µM	97.7 µM	15.7 µM	33.1 µM
O=C1/C(=C/c2ccc([N+](=O)[O-])o2)Oc2ccc(Cl)cc21	2.1 µM	4.47 µM	2.18 µM	4.56 µM	1.54 µM	2.98 µM	1.45 µM	3.31 µM	1.42 µM	3.92 µM	2.72 µM	7.06 µM	2.02 µM	4.52 µM	2.05 µM	6.73 µM	0.537 µM	2.05 µM	1.67 µM	3.32 µM
COc1ccc2c(c1)-c1c(c3cc(OC)ccc3n(CCN(C)C)c1=O)C2=O	1.17 µM	5.65 µM	1.18 µM	9.24 µM	0.352 µM	7.07 µM	2.65 µM	50 µM	0.221 µM	5.3 µM	2.35 µM	9.42 µM	0.443 µM	6.77 µM	0.174 µM	0.953 µM	0.629 µM	13.1 µM	5.84 µM	12.9 µM
CCOC(=O)/C=C1/SC(=Nc2ccc(C#N)cc2)N(Cc2ccco2)C1=O	2.45 µM	9.65 µM	3.67 µM	15.8 µM	1.78 µM	3.33 µM	4.51 µM	22.9 µM	2.7 µM	12.7 µM	1.93 µM	4.17 µM	2.07 µM	4.06 µM	2.81 µM	8.31 µM	2.02 µM	5.13 µM	10.8 µM	52.6 µM
